Experimental data as given in ChEMBL document CHEMBL1130599, “Novel protein kinase C inhibitors: alpha-terthiophene derivatives” (Bioorg Med Chem Lett, 1998).

Assay: Inhibition of protein kinase C(1:1mixture of PKC alpha & beta) expressed in Sf9 insect cells
Format: cell-based

## O=Cc1ccc(-c2cccs2)s1
  IC50: 700 µM

## O=Cc1ccc(-c2ccc(-c3ccc(CO)s3)s2)s1
  IC50: 0.7 µM

## N#Cc1ccc(-c2ccc(-c3cccs3)s2)s1
  IC50: 2 µM

## c1csc(-c2ccc(-c3cccs3)s2)c1
  IC50: 10 µM

## OCc1ccc(-c2ccc(-c3cccs3)s2)s1
  IC50: 4 µM

## O=Cc1ccc(-c2ccc(-c3ccc(C=O)s3)s2)s1
  IC50: 0.3 µM

## NCc1ccc(-c2ccc(-c3cccs3)s2)s1
  IC50: 7 µM

## O=Cc1ccc(-c2ccc(-c3cccs3)s2)s1
  IC50: 0.7 µM

## O=Cc1cccs1 [2-THIOPHENENECARBOXALDEHYDE]
  IC50: > 4000 µM

## CN1CCN(CCCN2c3ccccc3Sc3ccc(C(F)(F)F)cc32)CC1 [TRIFLUOPERAZINE]
  IC50: 500 µM
